“And” between values parts separate entries of the source, which are not always exact repeats. Equal values may be shown once. Inconclusive results and toxic doses are left out. Cut-off read from the data, not from the text of the source: active = T/C of 150% or more; inactive = T/C below 125%.
Tested on: L1210 leukemia ip in BDF1 mice, survival T/C
Test: NCI In Vivo Anticancer Drug Screen. Data for tumor model L1210 Leukemia (intraperitoneal) in B6D2F1 (BDF1) mice
Conditions: endpoint: mean survival time, higher = longer survival
How it was run: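 In this screen, tumor-bearing mice given compound are compared to those given vehicle, and their survival values are reported as a treated-to-control quotient.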

[1] = dose: 100.0 mg/kg/injection, schedule: Q04DX003 (ip), vehicle: Klucel (hydroxypropylcellulose) (HPC)
[2] = dose: 200.0 mg/kg/injection, schedule: Q04DX003 (ip), vehicle: Klucel (hydroxypropylcellulose) (HPC)
[3] = dose: 400.0 mg/kg/injection, schedule: Q04DX003 (ip), vehicle: Klucel (hydroxypropylcellulose) (HPC)
[4] = dose: 100.0 mg/kg/injection, schedule: Q01DX001 (sc), vehicle: steriod suspending solution
[5] = dose: 400.0 mg/kg/injection, schedule: Q01DX001 (sc), vehicle: steriod suspending solution
[6] = dose: 50.0 mg/kg/injection, schedule: Q01DX009 (ip), vehicle: Klucel (hydroxypropylcellulose) (HPC)
[7] = dose: 100.0 mg/kg/injection, schedule: Q01DX009 (ip), vehicle: Klucel (hydroxypropylcellulose) (HPC)
[8] = dose: 25.0 mg/kg/injection, schedule: Q01DX009 (ip), vehicle: Klucel (hydroxypropylcellulose) (HPC)
[9] = dose: 100.0 mg/kg/injection, schedule: Q04DX002 (ip), vehicle: saline with Tween-80
[10] = dose: 200.0 mg/kg/injection, schedule: Q04DX002 (ip), vehicle: saline with Tween-80
[11] = dose: 400.0 mg/kg/injection, schedule: Q04DX002 (ip), vehicle: saline with Tween-80

Measured: T/C

CC(=O)Nc1ccc(S(=O)(=O)Oc2ccc([N+](=O)[O-])cc2)cc1
inactive: dose: 25.0 mg/kg/injection, schedule: Q01DX009 (ip), vehicle: saline 94 % of control | dose: 50.0 mg/kg/injection, schedule: Q01DX009 (ip), vehicle: saline 96 % of control | dose: 100.0 mg/kg/injection, schedule: Q01DX009 (ip), vehicle: saline 94 % of control | dose: 400.0 mg/kg/injection, schedule: Q01DX009 (ip), vehicle: saline 100 % of control

CCCCCCC(C)OB(OC(C)CCCCCC)OC(C)CCCCCC (stereo not drawn)
inactive: [1] 103 % of control | [2] 95 % of control | [3] 93 % of control

c1ccc([As](C[As](c2ccccc2)c2ccccc2)c2ccccc2)cc1
inactive: dose: 50.0 mg/kg/injection, schedule: Q04DX003 (ip), vehicle: Klucel (hydroxypropylcellulose) (HPC) 91 % of control | [1] 97 % of control | [2] 96 % of control | [3] 92 % of control

CC(=O)OC1CCC2(C)C(=CCC3C2CCC2(C)C(C(C)N)CCC32)C1 (stereo not drawn)
inactive: [4] 90 % of control | [5] 90 % of control

CCC(c1ccccc1)c1nc2ccccc2c2ccccc12 (stereo not drawn)
inactive: [6] 97 % of control | [7] 97 % of control | dose: 200.0 mg/kg/injection, schedule: Q01DX009 (ip), vehicle: Klucel (hydroxypropylcellulose) (HPC) 94 % of control

c1ccc2c3c([nH]c2c1)CCC3
inactive: dose: 100.0 mg/kg/injection, schedule: Q01DX001 (ip), vehicle: carboxymethylcellulose (CMC) 93 % of control | dose: 200.0 mg/kg/injection, schedule: Q01DX001 (ip), vehicle: carboxymethylcellulose (CMC) 98 % of control | dose: 400.0 mg/kg/injection, schedule: Q01DX001 (ip), vehicle: carboxymethylcellulose (CMC) 102 % of control

N#C/C(N)=C(\C#N)N=CC=N/C(C#N)=C(/N)C#N
inactive: dose: 12.5 mg/kg/injection, schedule: Q01DX009 (ip), vehicle: Klucel (hydroxypropylcellulose) (HPC) 103 % of control | [8] 103 % of control | [6] 103 % of control | dose: 100.0 mg/kg/injection, schedule: Q01DX001 (ip), vehicle: Klucel (hydroxypropylcellulose) (HPC) 95 % of control

CC1(C)C(C#N)C(=O)N=C(N)C1C(N)=O (stereo not drawn)
inactive: [8] 94 % of control | [6] 94 % of control | [7] 94 % of control | [1] 92 % of control

COC1OC2COC(c3ccccc3)OC2C2OC12 (stereo not drawn)
inactive: dose: 100.0 mg/kg/injection, schedule: Q01DX001 (ip), vehicle: saline with Tween-80 94 % of control | dose: 100.0 mg/kg/injection, schedule: Q01DX009 (ip), vehicle: saline with Tween-80 102 % of control | [9] 100 % of control and 90 % of control | dose: 100.0 mg/kg/injection, schedule: Q04DX003 (ip), vehicle: saline with Tween-80 91 % of control and 86 % of control | dose: 200.0 mg/kg/injection, schedule: Q01DX001 (ip), vehicle: saline with Tween-80 88 % of control | dose: 200.0 mg/kg/injection, schedule: Q01DX009 (ip), vehicle: saline with Tween-80 102 % of control | [10] 96 % of control and 111 % of control | dose: 200.0 mg/kg/injection, schedule: Q04DX003 (ip), vehicle: saline with Tween-80 100 % of control and 88 % of control | dose: 400.0 mg/kg/injection, schedule: Q01DX001 (ip), vehicle: saline with Tween-80 88 % of control | dose: 400.0 mg/kg/injection, schedule: Q01DX009 (ip), vehicle: saline with Tween-80 97 % of control | [11] 100 % of control and 97 % of control | dose: 400.0 mg/kg/injection, schedule: Q04DX003 (ip), vehicle: saline with Tween-80 90 % of control and 93 % of control

CC12CC(C(O)(C(F)(F)F)C(F)(F)F)C(=O)C=C1CCC1C2CCC2(C)C(C(=O)CC(O)(C(F)(F)F)C(F)(F)F)CCC12 (stereo not drawn)
inactive: [4] 103 % of control | dose: 200.0 mg/kg/injection, schedule: Q01DX001 (sc), vehicle: steriod suspending solution 103 % of control | [5] 101 % of control

O=C1CCC(Cc2cccc3ccccc23)N1 (stereo not drawn)
inactive: [9] 97 % of control | [10] 91 % of control | [11] 94 % of control

CCN(CC)CN(CC)CC
inactive: dose: 25.0 mg/kg/injection, schedule: Q04DX002 (ip), vehicle: saline with Tween-80 103 % of control | dose: 50.0 mg/kg/injection, schedule: Q04DX002 (ip), vehicle: saline with Tween-80 100 % of control | [9] 98 % of control and 103 % of control
